Reference: ChEMBL document CHEMBL1201862, “PubChem BioAssay data set” (2004)
Activity calls are given as the source filed them.

How the values were obtained:
HEK293 = experiment: cells; settings: Homo sapiens;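 also: cells exposed to compound for 14 hours overnight before viability readout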
INS1 = experiment: beta cell apoptosis inhibitors, cytokine rescue, dose response, luminescence, retest (AID 449756); format: functional, cell-based; settings: Rattus norvegicus;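 also: cell death triggered by IL-1 beta plus TNF-alpha plus IFN-gamma mixture; protective hits raise ATP signal compared with cytokine alone wells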
Tumor necrosis factor = Tumor necrosis factor (Homo sapiens, UniProt P01375); experiment: TNFa-triggered NF-kB activation inhibitors, SAR follow-up, cell-based, revised (AID 2337); format: functional
[1] = target: Nucleotide-binding oligomerization domain-containing protein 1 (Homo sapiens, UniProt Q9Y239); experiment: NOD1 signaling inhibitors, SAR follow-up, revised (AID 2333); format: functional
[2] = target: Luciferin 4-monooxygenase (Photinus pyralis, UniProt P08659); experiment: firefly luciferase enzyme inhibitors, dose response, biochemical, luminescence (AID 1891)
Cytochrome P450 2D6 = Cytochrome P450 2D6 (Homo sapiens, UniProt P10635);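 also: CYP2D6 member of a cytochrome P450 panel assay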
[3] = Luminescence Cell-Based Dose Confirmation HTS to Identify Inhibitors of Platelet Dense Granule Release. [Related pubchem assays: 1663 (Primary HTS), 1678 (Summary of Project)]; format: functional
Cytochrome P450 2C9 = Cytochrome P450 2C9 (Homo sapiens, UniProt P11712)
Cytochrome P450 2C19 = Cytochrome P450 2C19 (Homo sapiens, UniProt P33261); experiment: Cytochrome panel assay with activity outcomes. Panel member name: p450-cyp2c19 Compounds with AC50 equal or less than 10 uM are considered active; format: functional; settings: read-out: AC50
Cytochrome P450 2C19, sequence (P33261 whole entry): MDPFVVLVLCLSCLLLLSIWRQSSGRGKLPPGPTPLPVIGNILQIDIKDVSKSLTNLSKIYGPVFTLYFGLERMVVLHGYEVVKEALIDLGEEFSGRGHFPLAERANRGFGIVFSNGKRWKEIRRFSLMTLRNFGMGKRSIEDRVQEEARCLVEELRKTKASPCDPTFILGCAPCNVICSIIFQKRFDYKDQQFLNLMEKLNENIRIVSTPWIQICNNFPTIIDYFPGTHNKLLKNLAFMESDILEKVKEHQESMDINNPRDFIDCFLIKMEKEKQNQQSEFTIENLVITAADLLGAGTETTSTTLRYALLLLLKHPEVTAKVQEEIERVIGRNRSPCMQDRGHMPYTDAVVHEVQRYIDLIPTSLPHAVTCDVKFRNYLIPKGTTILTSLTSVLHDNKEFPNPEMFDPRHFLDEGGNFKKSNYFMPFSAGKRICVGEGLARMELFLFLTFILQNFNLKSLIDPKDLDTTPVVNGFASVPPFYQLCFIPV

Cytochrome P450 2D6, sequence (P10635 whole entry): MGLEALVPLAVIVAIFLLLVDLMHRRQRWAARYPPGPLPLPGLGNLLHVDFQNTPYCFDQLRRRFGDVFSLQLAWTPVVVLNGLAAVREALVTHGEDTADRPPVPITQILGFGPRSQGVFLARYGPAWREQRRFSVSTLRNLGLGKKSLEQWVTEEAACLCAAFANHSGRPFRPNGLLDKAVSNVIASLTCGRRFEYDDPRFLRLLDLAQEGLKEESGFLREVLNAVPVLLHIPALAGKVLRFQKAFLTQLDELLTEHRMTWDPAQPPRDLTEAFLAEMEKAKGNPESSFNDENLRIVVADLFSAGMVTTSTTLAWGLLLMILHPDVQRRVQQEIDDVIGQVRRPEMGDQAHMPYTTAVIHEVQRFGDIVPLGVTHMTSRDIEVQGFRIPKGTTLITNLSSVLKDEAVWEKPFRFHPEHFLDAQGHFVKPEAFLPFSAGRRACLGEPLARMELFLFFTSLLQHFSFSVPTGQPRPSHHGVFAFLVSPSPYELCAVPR
Tumor necrosis factor, sequence (P01375 whole entry, the tested form may be a part): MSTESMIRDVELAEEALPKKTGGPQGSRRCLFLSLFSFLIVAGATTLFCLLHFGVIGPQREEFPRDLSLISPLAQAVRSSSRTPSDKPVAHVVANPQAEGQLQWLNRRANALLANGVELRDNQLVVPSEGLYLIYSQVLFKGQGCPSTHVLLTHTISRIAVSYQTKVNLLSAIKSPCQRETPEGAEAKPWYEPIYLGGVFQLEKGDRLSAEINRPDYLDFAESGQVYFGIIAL
Luciferin 4-monooxygenase, sequence (P08659 whole entry): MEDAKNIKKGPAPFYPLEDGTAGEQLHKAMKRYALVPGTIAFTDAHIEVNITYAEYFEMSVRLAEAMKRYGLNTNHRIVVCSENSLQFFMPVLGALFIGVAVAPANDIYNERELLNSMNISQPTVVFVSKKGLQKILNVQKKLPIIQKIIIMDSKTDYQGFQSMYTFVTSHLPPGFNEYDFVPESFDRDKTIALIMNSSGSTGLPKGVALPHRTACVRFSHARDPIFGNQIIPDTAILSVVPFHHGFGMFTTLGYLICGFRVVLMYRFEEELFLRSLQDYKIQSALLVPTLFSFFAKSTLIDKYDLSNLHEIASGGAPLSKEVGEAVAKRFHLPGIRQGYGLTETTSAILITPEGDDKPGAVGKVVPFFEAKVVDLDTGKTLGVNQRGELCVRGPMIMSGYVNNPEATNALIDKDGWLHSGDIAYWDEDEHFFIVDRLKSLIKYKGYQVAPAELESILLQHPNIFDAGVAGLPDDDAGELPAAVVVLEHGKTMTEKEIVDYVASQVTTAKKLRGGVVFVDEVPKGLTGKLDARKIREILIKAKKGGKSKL
Nucleotide-binding oligomerization domain-containing protein 1, sequence (Q9Y239 whole entry, the tested form may be a part): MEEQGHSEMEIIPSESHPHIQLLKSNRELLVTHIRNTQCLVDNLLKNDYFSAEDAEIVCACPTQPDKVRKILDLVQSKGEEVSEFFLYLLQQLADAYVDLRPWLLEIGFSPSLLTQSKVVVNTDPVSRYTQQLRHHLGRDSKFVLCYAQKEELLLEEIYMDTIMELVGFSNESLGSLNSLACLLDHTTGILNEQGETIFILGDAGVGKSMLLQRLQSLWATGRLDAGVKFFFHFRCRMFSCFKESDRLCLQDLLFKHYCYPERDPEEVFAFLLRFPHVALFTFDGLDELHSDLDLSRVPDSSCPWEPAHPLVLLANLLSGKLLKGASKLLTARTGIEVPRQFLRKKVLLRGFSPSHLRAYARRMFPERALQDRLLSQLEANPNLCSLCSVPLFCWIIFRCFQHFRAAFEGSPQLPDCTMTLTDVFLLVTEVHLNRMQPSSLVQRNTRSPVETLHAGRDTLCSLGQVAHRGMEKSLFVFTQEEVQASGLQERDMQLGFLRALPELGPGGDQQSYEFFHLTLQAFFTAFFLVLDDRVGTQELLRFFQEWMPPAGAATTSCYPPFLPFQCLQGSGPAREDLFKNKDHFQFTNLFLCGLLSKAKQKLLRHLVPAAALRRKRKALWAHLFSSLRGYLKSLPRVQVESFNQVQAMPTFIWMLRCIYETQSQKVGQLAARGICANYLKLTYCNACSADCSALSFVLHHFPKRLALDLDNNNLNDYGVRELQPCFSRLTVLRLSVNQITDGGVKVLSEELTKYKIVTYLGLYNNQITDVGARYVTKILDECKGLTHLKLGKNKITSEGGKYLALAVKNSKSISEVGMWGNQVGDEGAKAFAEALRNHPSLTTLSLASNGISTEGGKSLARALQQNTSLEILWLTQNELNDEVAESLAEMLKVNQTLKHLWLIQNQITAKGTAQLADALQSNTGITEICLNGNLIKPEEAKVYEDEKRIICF
Cytochrome P450 2C9, sequence (P11712 whole entry): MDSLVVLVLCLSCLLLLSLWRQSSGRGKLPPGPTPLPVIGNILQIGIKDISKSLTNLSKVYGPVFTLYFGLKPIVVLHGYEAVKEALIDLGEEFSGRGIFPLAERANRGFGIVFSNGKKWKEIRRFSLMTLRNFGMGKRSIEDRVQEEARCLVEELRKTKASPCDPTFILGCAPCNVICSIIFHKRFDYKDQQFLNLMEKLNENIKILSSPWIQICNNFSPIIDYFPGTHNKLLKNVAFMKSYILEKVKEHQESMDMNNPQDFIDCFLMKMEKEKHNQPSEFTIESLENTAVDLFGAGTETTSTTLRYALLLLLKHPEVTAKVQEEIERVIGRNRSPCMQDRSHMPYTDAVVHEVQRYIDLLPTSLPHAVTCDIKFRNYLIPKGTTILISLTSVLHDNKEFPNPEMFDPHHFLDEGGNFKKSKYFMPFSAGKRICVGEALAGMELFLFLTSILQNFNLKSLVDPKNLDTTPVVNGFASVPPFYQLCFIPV

SMILES	IC50 (HEK293)	AC50 (INS1)	IC50 (Tumor necrosis factor)	IC50 [1]	EC50 [2]	AC50 (Cytochrome P450 2D6)	EC50 [3]	AC50 (Cytochrome P450 2C9)	AC50 (Cytochrome P450 2C19)
CC(=O)c1ccc(N2CCN(S(=O)(=O)c3ccc4c(c3)CC(C)N4C(C)=O)CC2)cc1 (stereo not given)	> 20 µM (inactive)	6.79 µM (active)	6.5 µM (active)	4.42 µM (active)					
Cc1ccc(NC(=O)c2cc(NC(=O)CCCC(=O)O)ccc2Cl)cc1Cl					> 112 µM (not active)	inconclusive	> 112 µM (not active)	15.8 µM (inconclusive)	0.891 µM (inconclusive)
C#C[C@H](N)CCC(=O)O						inconclusive			
